The species named for experiment [1] is Homo sapiens. The experiment is described as follows: Selectivity for calcium channel Cav2.2 over calcium channel L type.
The target of experiment [2] is Voltage-dependent N-type calcium channel subunit alpha-1B (Homo sapiens, UniProt Q00975). The experiment can be described thus: Inhibition of calcium channel Cav2.2 in IMR32 cells. The class given is cell-based, IMR-32.
Experiment [3] in a line: Inhibition of calcium channel L type in IMR32 cells. It counts as cell-based, Homo sapiens. The following applies: imr-32.

Each structure is given as a SMILES string. Some results are limits rather than exact numbers.

As a reminder, the IC50 is the concentration that inhibits the measured activity by half.

Sequence of Voltage-dependent N-type calcium channel subunit alpha-1B (Q00975 whole entry): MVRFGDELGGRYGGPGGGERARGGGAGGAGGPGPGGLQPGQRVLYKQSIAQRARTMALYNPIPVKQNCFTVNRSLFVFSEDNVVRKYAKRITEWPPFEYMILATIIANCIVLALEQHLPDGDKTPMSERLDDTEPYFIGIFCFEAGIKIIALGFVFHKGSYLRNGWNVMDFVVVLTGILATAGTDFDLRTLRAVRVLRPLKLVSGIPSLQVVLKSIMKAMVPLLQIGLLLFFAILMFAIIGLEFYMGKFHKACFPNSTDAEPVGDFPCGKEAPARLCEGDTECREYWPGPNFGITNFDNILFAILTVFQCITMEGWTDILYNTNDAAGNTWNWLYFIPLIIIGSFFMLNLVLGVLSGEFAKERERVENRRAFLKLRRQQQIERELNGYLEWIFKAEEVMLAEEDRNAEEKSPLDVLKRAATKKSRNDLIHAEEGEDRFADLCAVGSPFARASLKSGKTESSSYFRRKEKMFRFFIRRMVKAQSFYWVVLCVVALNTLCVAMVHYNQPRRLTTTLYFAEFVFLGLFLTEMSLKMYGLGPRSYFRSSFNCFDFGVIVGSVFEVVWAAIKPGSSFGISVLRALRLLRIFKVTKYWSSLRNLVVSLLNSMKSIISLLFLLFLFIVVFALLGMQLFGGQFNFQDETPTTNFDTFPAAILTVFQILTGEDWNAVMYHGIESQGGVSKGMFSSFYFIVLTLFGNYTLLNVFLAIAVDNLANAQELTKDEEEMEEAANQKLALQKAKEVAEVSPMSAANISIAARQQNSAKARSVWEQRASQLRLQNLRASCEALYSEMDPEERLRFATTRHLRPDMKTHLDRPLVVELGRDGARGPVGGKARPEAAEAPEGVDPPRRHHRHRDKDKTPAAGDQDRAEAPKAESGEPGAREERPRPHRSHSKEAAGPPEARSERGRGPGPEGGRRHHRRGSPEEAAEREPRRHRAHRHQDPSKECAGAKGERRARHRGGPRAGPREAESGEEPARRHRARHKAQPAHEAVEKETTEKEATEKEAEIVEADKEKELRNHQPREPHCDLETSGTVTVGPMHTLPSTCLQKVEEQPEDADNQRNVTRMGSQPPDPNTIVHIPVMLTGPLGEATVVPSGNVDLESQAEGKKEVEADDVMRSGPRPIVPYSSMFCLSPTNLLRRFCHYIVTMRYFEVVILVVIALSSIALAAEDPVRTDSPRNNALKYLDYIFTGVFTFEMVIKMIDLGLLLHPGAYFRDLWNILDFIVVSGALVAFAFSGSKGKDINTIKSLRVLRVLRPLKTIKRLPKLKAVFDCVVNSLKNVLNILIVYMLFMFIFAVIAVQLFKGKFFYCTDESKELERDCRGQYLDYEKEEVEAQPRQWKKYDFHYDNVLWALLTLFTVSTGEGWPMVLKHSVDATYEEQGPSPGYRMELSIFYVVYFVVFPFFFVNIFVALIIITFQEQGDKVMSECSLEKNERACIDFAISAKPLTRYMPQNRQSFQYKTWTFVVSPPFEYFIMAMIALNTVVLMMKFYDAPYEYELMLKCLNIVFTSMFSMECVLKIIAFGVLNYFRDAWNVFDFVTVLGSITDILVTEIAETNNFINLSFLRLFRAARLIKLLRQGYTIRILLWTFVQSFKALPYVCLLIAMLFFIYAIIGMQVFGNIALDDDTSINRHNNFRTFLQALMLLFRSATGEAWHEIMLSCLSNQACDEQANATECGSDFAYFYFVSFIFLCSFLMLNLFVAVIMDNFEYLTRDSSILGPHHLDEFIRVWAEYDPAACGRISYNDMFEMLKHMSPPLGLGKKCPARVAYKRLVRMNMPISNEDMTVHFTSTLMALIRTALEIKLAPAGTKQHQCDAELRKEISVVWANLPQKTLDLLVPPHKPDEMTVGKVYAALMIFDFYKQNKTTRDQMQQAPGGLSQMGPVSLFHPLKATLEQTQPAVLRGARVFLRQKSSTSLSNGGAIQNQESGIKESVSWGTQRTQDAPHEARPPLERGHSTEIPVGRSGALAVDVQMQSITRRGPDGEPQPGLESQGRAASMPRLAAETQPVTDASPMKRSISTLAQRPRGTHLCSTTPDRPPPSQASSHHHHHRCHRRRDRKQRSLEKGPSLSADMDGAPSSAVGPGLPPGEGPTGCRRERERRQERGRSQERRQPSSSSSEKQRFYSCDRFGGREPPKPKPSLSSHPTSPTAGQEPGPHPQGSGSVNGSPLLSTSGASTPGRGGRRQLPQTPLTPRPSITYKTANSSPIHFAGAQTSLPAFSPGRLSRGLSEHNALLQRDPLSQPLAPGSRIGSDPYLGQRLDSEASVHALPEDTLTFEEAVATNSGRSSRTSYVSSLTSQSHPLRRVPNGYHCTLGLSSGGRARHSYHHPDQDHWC

Turning to `Cc1ccc(-c2ccncc2[C@H]2SCC(=O)N2CC(C)C)cc1` (stereo in doubt; 61) [listing 1 of 2 here], in experiment [1], the Ratio IC50 came out at 31.8.
For `CC(C)CN1C(=O)CSC1c1ccncc1-c1ccc(Cl)cc1` (stereo unspecified), the Ratio IC50 in experiment [1] was found to be 7.9. Moreover, the IC50 was found to be 0.58 µM in experiment [2] and 4.58 µM in experiment [3].
For `CC(C)CNC(=O)CC1SC(c2ccc(F)c(Br)c2)N(CCc2ccccn2)C1=O` (stereo unspecified), in that order: 2.2, 1.34 µM and 2.92 µM.
As for `COc1ccc(CN2CCN(C(c3ccc(F)cc3)c3ccc(F)cc3)CC2)c(OC)c1OC` [LOMERIZINE], the Ratio IC50 in experiment [1] worked out at 0.6. Also, the figures for the IC50 in experiment [2] and in experiment [3] were 2.43 µM and 1.48 µM, respectively.
As for `O=C1CSC(c2cnccc2-c2ccc(Br)cc2)N1C1CCCC1` (stereo unspecified), in experiment [1], the Ratio IC50 is 16.3. For the same compound, the results for the IC50 in experiment [2] and in experiment [3] were 0.63 µM and 10.3 µM, respectively.
For `CC(C)CN1C(=O)CSC1c1cnccc1-c1ccc(F)cc1` (stereo unspecified), in experiment [1], the Ratio IC50 was 5.2. Moreover, the IC50 was found to be 1.29 µM in experiment [2] and 6.66 µM in experiment [3].
Take `CC(C)CN1C(=O)CS[C@@H]1c1cnccc1-c1ccc(C(F)(F)F)cc1` (stereo in doubt; 59) [listing 1 of 2 here]: the Ratio IC50 in experiment [1] came to 29.1.
For `CCc1ccc(-c2ccncc2C2SCC(=O)N2CC(C)C)cc1` (stereo unspecified), the Ratio IC50 in experiment [1] amounted to 6.3. Moreover, the IC50 in experiment [2] came to 0.88 µM; in experiment [3] it was 5.54 µM.
Regarding `CC(C)CN1C(=O)CSC1c1cccnc1-c1ccc(Cl)cc1` (stereo unspecified), the Ratio IC50 in experiment [1] is 5.9. For the same compound, the IC50 was 1.26 µM in experiment [2] and 7.49 µM in experiment [3].
Consider `CC(C)CN1C(=O)CSC1c1cccnc1-c1ccc(F)cc1` (stereo unspecified), for which the Ratio IC50 in experiment [1] came to 2.6. Also, the figures for the IC50 in experiment [2] and in experiment [3] were 4.92 µM and 12.9 µM, respectively.
In the case of `Cc1ccc(-c2ccncc2C2SCC(=O)N2CC(C)C)cc1` (stereo unspecified), the Ratio IC50 in experiment [1] turned out to be 16.7. In addition, the IC50 in experiment [2] worked out at 0.49 µM; in experiment [3], 8.2 µM.
Consider `Cc1ccc(-c2ccncc2[C@H]2SCC(=O)N2CC(C)C)cc1` (stereo in doubt; 61) [listing 2 of 2 here], for which the IC50 in experiment [2] amounted to 0.73 µM; in experiment [3], 23.2 µM.
Turning to `Cc1ccc(-c2ncccc2C2SCC(=O)N2CC(C)C)cc1` (stereo unspecified), the Ratio IC50 in experiment [1] was found to be 6.4. In addition, the figures for the IC50 in experiment [2] and in experiment [3] were 1.96 µM and 12.5 µM, respectively.
For `COc1ccc(-c2ncccc2C2SCC(=O)N2CC(C)C)cc1` (stereo unspecified), in that order: 2.3, 8.93 µM and 20.6 µM.
In the case of `CC(C)CN1C(=O)CSC1c1cnccc1-c1ccc(Br)cc1` (stereo unspecified), the Ratio IC50 in experiment [1] came out at 12.8. Besides, the IC50 in experiment [2] was 0.66 µM; in experiment [3] it was 8.41 µM.
In the case of `CC(C)CN1C(=O)CS[C@@H]1c1cnccc1-c1ccc(C(F)(F)F)cc1` (stereo in doubt; 59) [listing 2 of 2 here], the half-maximal inhibitory concentration (IC50) worked out at 0.77 µM in experiment [2] and 22.9 µM in experiment [3].
As for `C=Cc1ccc(-c2ncccc2C2SCC(=O)N2CC(C)C)cc1` (stereo unspecified), in experiment [1], the Ratio IC50 came out at 3.2. For the same compound, the IC50 in experiment [2] was 1.33 µM; in experiment [3] it was 4.23 µM.
Turning to `O=C1CSC(c2ccncc2-c2ccc(C(F)(F)F)cc2)N1C1CCCC1` (stereo unspecified), the Ratio IC50 in experiment [1] amounted to 3.1. Also, the IC50 in experiment [2] worked out at 1.37 µM; in experiment [3] it was 4.25 µM.
For `CCC(C)N1C(=O)CSC1c1cnccc1-c1ccc(Br)cc1` (stereo unspecified), in that order: 11.2, 0.21 µM and 2.33 µM.
Consider `CC(C)CN1C(=O)CSC1c1cccnc1-c1ccc(C(F)(F)F)cc1` (stereo unspecified), for which the Ratio IC50 in experiment [1] was 9.7. Further, the IC50 in experiment [2] was determined as 0.56 µM; in experiment [3] it was 5.44 µM.
Consider `CC(C)CN1C(=O)CSC1c1cccnc1-c1ccc(Br)cc1` (stereo unspecified), for which the Ratio IC50 in experiment [1] came out at 8.9. Also, the figures for the IC50 in experiment [2] and in experiment [3] were 0.7 µM and 6.2 µM, respectively.
Consider `CC(C)CN1C(=O)CSC1c1ccncc1-c1ccc(F)cc1` (stereo unspecified), for which, in experiment [1], the Ratio IC50 amounted to 2.8. Besides, the figures for the IC50 in experiment [2] and in experiment [3] were 4.15 µM and 11.7 µM, respectively.
Turning to `CC(C)CN1C(=O)CSC1c1ccncc1-c1ccc(Br)cc1` (stereo unspecified), in experiment [1], the Ratio IC50 is 6.1. Moreover, the IC50 came out at 0.5 µM in experiment [2] and 3.08 µM in experiment [3].
`CC(C)CN1C(=O)CSC1c1cnccc1-c1ccc(C(F)(F)F)cc1` (stereo unspecified): the Ratio IC50 in experiment [1] was found to be 9.6. Further, the figures for the IC50 in experiment [2] and in experiment [3] were 1.07 µM and 10.3 µM, respectively.
As for `CC(C)CN1C(=O)CSC1c1cnccc1-c1ccc(Cl)cc1` (stereo unspecified), the Ratio IC50 in experiment [1] turned out to be 3.6. For the same compound, the results for the IC50 in experiment [2] and in experiment [3] were 0.6 µM and 2.18 µM, respectively.
Consider `O=C1CSC(c2ccc(F)c(Br)c2)N1CCc1ccccn1` (stereo unspecified), for which the Ratio IC50 in experiment [1] turned out to be 5.6. Further, the IC50 in experiment [2] worked out at 1.68 µM; in experiment [3] it was 9.51 µM.
Consider `C=Cc1ccc(-c2cnccc2C2SCC(=O)N2CC(C)C)cc1` (stereo unspecified), for which, in experiment [1], the Ratio IC50 came to 7.8. The figures for the IC50 in experiment [2] and in experiment [3] were 0.53 µM and 4.16 µM, respectively.
Consider `C=Cc1ccc(-c2ccncc2C2SCC(=O)N2CC(C)C)cc1` (stereo unspecified), for which the Ratio IC50 in experiment [1] turned out to be 19.5. Also, the results for the 50% inhibitory concentration (IC50) in experiment [2] and in experiment [3] were 0.51 µM and 9.99 µM, respectively.
For `O=C1CSC(c2cnccc2-c2ccc(Br)cc2)N1C1CC1` (stereo unspecified), in experiment [1], the Ratio IC50 was found to be 3.6. Also, the figures for the half-inhibitory concentration (IC50) in experiment [2] and in experiment [3] were 1.3 µM and 4.69 µM, respectively.
Turning to `O=C1CS(=O)(=O)C(c2ccc(F)c(Br)c2)N1CCc1ccccn1` (stereo unspecified), the IC50 was 8.13 µM in experiment [2] and over 30 µM in experiment [3].
`Fc1ccc(C(c2ccc(F)cc2)N2CCN(C/C=C/c3ccccc3)CC2)cc1` [FLUNARIZINE]: in experiment [1], the Ratio IC50 amounted to 0.5. Also, the IC50 in experiment [2] is 1.67 µM; in experiment [3], 0.78 µM.
As to `Cc1ccc(-c2ccncc2[C@H]2SCC(=O)N2CC(C)C)cc1` (stereo in doubt; 60) [listing 1 of 2 here], the results for the IC50 in experiment [2] and in experiment [3] were 4.44 µM and 12.9 µM, respectively.
Take `O=C1CSC(c2cccc(C(F)(F)F)c2)N1CCc1ccccn1` (stereo unspecified): the Ratio IC50 in experiment [1] was 4.8. Also, the IC50 in experiment [2] was found to be 2.41 µM; in experiment [3], 11.5 µM.
With `CC(C)CN1C(=O)CS[C@@H]1c1cnccc1-c1ccc(C(F)(F)F)cc1` (stereo in doubt; 58) [listing 1 of 2 here], in experiment [1], the Ratio IC50 was 3.9.
With `CC(C)CNC(=O)CC1SC(c2cccc(C(F)(F)F)c2)N(CCc2ccccn2)C1=O` (stereo unspecified), the Ratio IC50 in experiment [1] is 1.6. For the same compound, the IC50 is 1.29 µM in experiment [2] and 2.08 µM in experiment [3].
For the compound `CC(C)CN1C(=O)CS[C@@H]1c1cnccc1-c1ccc(C(F)(F)F)cc1` (stereo in doubt; 58) [listing 2 of 2 here], the IC50 turned out to be 3.32 µM in experiment [2] and 12.9 µM in experiment [3].
Consider `Cc1ccc(-c2ccncc2[C@H]2SCC(=O)N2CC(C)C)cc1` (stereo in doubt; 60) [listing 2 of 2 here], for which the Ratio IC50 in experiment [1] was 2.9.
For `CC(C)CN1C(=O)CSC1c1cnccc1-c1ccccc1` (stereo unspecified), the Ratio IC50 in experiment [1] amounted to 4.1. The 50% inhibitory concentration (IC50) in experiment [2] was found to be 3.98 µM; in experiment [3], 16.4 µM.
`O=C1CSC(c2cnccc2-c2ccc(Br)cc2)N1C1CCCCC1` (stereo unspecified): the Ratio IC50 in experiment [1] was found to be 1.5. Also, the IC50 in experiment [2] was found to be 1.32 µM; in experiment [3], 2.01 µM.
With `O=C1C[S+]([O-])C(c2ccc(F)c(Br)c2)N1CCc1ccccn1` (stereo unspecified), the IC50 in experiment [2] is 29.8 µM; in experiment [3], over 30 µM.
As for `Cc1ccc(-c2cnccc2C2SCC(=O)N2CC(C)C)cc1` (stereo unspecified), the Ratio IC50 in experiment [1] came to 13.6. In addition, the half-maximal inhibitory concentration (IC50) turned out to be 0.59 µM in experiment [2] and 8.03 µM in experiment [3].
For `COc1ccc(-c2cnccc2C2SCC(=O)N2CC(C)C)cc1` (stereo unspecified) the same measures were 9.5, 1.4 µM and 13.7 µM.
Consider `CC(C)CN1C(=O)COC1c1cnccc1-c1ccc(Br)cc1` (stereo unspecified), for which the Ratio IC50 in experiment [1] was found to be 6.6. Further, the IC50 came out at 4.42 µM in experiment [2] and 29.3 µM in experiment [3].
For `CC(C)CN1C(=O)C[S+]([O-])C1c1cnccc1-c1ccc(Br)cc1` (stereo unspecified) the same measures were 3.8, 3.97 µM and 15 µM.
As to `CN(C)c1ccc(-c2cnccc2C2SCC(=O)N2C2CCCC2)cc1` (stereo unspecified), the Ratio IC50 in experiment [1] worked out at 1.7. For the same compound, the IC50 in experiment [2] was determined as 10.7 µM; in experiment [3], 18.2 µM.

(Values after ChEMBL document CHEMBL1146318, “Synthesis and SAR of novel 2-arylthiazolidinones as selective analgesic N-type calcium channel blockers” (Bioorg Med Chem Lett, 2007).)
